Measurements published in article PMC7203344, “Sirtuin 1 Inhibiting Thiocyanates (S1th)—A New Class of Isotype Selective Inhibitors of NAD^+ Dependent Lysine Deacetylases” (Frontiers in Oncology, 2020).

Columns and labels:
HDAC6 = target: T1, HDAC6 (Homo sapiens, UniProt Q9UBN7); experiment: Homogeneous ZMAL-based fluorescence assay for HDAC6; format: biochemical
T1 sequence (Q9UBN7 1-1215): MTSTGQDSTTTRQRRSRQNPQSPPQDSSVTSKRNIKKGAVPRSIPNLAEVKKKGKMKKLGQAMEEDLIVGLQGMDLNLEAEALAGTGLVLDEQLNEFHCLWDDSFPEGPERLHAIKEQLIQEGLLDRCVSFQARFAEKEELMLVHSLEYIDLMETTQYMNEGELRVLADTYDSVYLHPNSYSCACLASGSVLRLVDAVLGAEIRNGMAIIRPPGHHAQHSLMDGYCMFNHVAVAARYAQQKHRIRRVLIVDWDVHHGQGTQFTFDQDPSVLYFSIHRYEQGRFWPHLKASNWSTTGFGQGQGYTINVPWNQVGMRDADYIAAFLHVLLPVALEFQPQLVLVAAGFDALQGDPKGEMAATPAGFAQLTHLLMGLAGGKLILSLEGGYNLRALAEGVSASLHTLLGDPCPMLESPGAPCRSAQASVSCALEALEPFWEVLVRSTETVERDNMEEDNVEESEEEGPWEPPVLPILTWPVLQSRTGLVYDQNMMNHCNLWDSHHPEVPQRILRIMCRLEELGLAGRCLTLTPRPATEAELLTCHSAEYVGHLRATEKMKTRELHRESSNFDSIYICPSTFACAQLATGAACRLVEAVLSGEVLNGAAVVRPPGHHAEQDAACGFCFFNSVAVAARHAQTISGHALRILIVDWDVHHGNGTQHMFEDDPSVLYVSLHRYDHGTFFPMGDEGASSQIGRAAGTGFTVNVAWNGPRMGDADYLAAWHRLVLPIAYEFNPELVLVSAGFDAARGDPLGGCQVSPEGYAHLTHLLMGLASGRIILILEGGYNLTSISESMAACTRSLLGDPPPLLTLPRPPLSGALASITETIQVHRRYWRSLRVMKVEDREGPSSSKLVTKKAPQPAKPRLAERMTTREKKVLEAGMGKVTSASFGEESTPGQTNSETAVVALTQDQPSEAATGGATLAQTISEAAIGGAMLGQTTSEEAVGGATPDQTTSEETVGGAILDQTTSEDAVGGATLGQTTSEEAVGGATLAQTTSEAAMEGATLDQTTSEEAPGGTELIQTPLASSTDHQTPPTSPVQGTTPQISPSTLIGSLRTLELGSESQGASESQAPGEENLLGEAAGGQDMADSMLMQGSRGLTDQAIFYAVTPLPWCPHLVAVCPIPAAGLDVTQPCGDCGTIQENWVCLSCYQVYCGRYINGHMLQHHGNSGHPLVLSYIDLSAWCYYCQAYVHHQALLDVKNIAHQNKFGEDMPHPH
Experimental: The inhibition of HDAC1 and 6 by the S1th and PR-619 was determined via the ZMAL-assay according to the same general procedure described for sirtuins (2.2.1). 5 μL substrate (10.5 μM final assay concentration) were mixed with 3 μL of inhibitor in DMSO or DMSO and 10 μL of HDAC solution (concentration adjusted to 15–30% conversion) and filled up to 60 μL with assay buffer (50 mM Tris, 137 mM NaCl, 1 mM MgCl2, 2,7 mM KCl, 1 mg/ml BSA, pH = 8.0). The mixture was incubated at 37°C and 140 rpm for 1.5 h. For the stop solution Trichostatin A (3.3 μM) was used instead of nicotinamide. Fluorescence intensity was measured as described above. An enzyme free blank control and an AMC containing 100% control were performed as well and inhibition was calculated in % in relation to a DMSO control.

deubiquitinases (DUBs) = experiment: DUB labeling on HEK293T cell lysate with Rhodamine-Ub-PA probe; format: biochemical, human; design: key to Qualitative pan-DUB inhibition @ 10 μM / Qualitative pan-DUB inhibition @ 50 μM: n.i.: no inhibition (<10%); +: low inhibition; +++: full inhibition; settings: for Qualitative pan-DUB inhibition @ 10 μM / Qualitative pan-DUB inhibition @ 50 μM: HEK293T cell lysate
Experimental: Pan-inhibition of deubiquitinases (DUBs) was tested using HEK293T cell lysate (human embryonic kidney cells, human). Cells were harvested and resuspended in HR buffer (50 mM Tris, 5 mM MgCl2, 250 mM sucrose, 1 mM DTT, pH 7.4). Cell lysis was achieved by sonication (Bioruptor, Diagenode, high intensity for 10 min with an ON/OFF cycle of 30 s) at 4°C and the cell debris was removed by centrifugation at 13,500 rpm for 15 min. Cell lysate protein concentration was determined with a NanoDrop spectrophotometer (NanoDrop One™ Spektrophotometer, Thermo Fisher, MA, USA) by measuring absorbance at 280 nm. Nineteen microliter of the lysate (2 μg/μL) were incubated with inhibitors dissolved in DMSO at various concentrations or DMSO as a control for 30 min at 37°C. Afterwards 1 μL of Rhodamine-Ub-PA (1 μM final assay concentration) was added to each sample, followed by further incubation for 40 min at 37°C ([61]). The labeling reaction was stopped by addition of NuPAGE 4× LDS sample buffer (Invitrogen Life Technologies, Carlsbad, CA, USA) containing β-mercaptoethanol and boiling for 7 min at 95°C. The proteins of the samples as well as protein marker (PageRuler™ Pre-stained Protein Ladder, 10–250 kDa, Thermo Fisher, MA, USA) were resolved by a 4–12% SDS-PAGE using the NuPAGE system with MOPS running buffer (Invitrogen Life Technologies, Carlsbad, CA, USA). The resulting gel was scanned with a Typhoon imager (GE Healthcare Life Sciences, USA) to visualize the Rhodamine-Ub-PA probe and Cy5 (marker). Subsequently the gel was stained with InstantBlue™ Protein Stain (Expedeon, UK) and scanned on a Amersham scanner (Amersham Typhoon gel and blot imaging system, GE Healthcare Life Sciences, USA).

HeLa cells = experiment: Cell proliferation assay with HeLa cells; format: cell-based, human; settings: EX-527 20 μM, S1th 13 12 μM, S1th 12 20 μM, S1th 10 30 μM; up to 120 h
Experimental: 1.5 × 10^4 cells/well were seeded in 24-well plates and grown in DMEM 10% in presence of DMSO, 20 μM EX-527, 12 μM S1th 13, 20 μM S1th 12, or 30 μM S1th 10. The growth media containing the drugs was replaced every 48 h. Cells were collected and counted at the indicated times starting 24 h after seeding (0, 24, 48, 72, 96, and 120 h). The experiment was performed twice in duplicates.

SMILES	residual activity HDAC6 (HDAC6)	inhibition at 100 µM (HDAC6)	Qualitative pan-DUB inhibition @ 10 μM (deubiquitinases (DUBs))	Qualitative pan-DUB inhibition @ 50 μM (deubiquitinases (DUBs))	inhibition of DUBs (in words) (deubiquitinases (DUBs); HEK cell lysate, Rhodamine-Ub-PA probe)	% inhibition @ 100 μM HDAC6 (HDAC6)	cell proliferation of HeLa cells (HeLa cells)
N#CSc1cc(SC#N)c(N)nc1N [PR-619, reference compound]	~ 50%	49%	+	+++	inhibits all DUBs tested in a concentration dependent manner		
N#CSc1cccc(NC(=O)[C@H]2CC=CC[C@H]2C(=O)O)c1 [S1th 10]		19%	n.i. (no inhibition (<10%))	n.i. (no inhibition (<10%))		29%	significantly decreased cell proliferation
CCCCNC(=O)Nc1cccc(SC#N)c1 [S1th 11]		< 10%	n.i. (no inhibition (<10%))	n.i. (no inhibition (<10%))			
COc1ccc(SC#N)cc1OCC(=O)N(CCC#N)CCC#N [S1th 12]		36%	n.i. (no inhibition (<10%))	n.i. (no inhibition (<10%))			only showed a mild effect
N#CSc1cccc(NS(=O)(=O)c2ccc3c(c2)OCCO3)c1 [S1th 13]		29%	n.i. (no inhibition (<10%))	n.i. (no inhibition (<10%))		19%	significantly decreased cell proliferation
